Measurements published in ChEMBL document CHEMBL3885881, “DrugMatrix”.

Organism: Rattus norvegicus
Test: DrugMatrix - Regimen: Daily Repeat
Type: toxicity, organism-based, Sprague-Dawley
Parameters: regimen Daily Repeat, gender Male, age 6-8 weeks
Conditions: in vivo, po, route oral GAVAGE, […]; for ABSOLUTE BASOPHIL / ABSOLUTE EOSINOPHIL / ABSOLUTE LYMPHOCYTE / ABSOLUTE MONOCYTE / ABSOLUTE SEGMENTED NEUTROPHIL / BASOPHIL / EOSINOPHIL / ERYTHROCYTE COUNT / HEMATOCRIT / HEMOGLOBIN / LEUKOCYTE COUNT / LYMPHOCYTE / MEAN CORPUSCULAR HEMOGLOBIN / MEAN CORPUSCULAR HEMOGLOBIN CONCENTRATION / MEAN CORPUSCULAR VOLUME / MONOCYTE / NEUTROPHIL / NUCLEATED RED BLOOD CELLS / PLATELET COUNT: tissue Blood; for ALANINE AMINOTRANSFERASE / ALBUMIN / ALKALINE PHOSPHATASE / ASPARTATE AMINOTRANSFERASE / BLOOD UREA NITROGEN / CARBON DIOXIDE / CHLORIDE / CHOLESTEROL / CREATINE PHOSPHOKINASE / CREATININE / GLUCOSE / LACTATE DEHYDROGENASE / LIPASE / PHOSPHORUS / POTASSIUM / SODIUM / TOTAL BILIRUBIN / TOTAL PROTEIN / URIC ACID: tissue Plasma
[1] = 100 mg/kg, 120 h, dose level M1, time 5 day
[2] = 610 mg/kg, 72 h, dose level High, time 3 day
[3] = 610 mg/kg, 120 h, dose level High, time 5 day

Q: Which results are given for `CC(C)(c1ccc(O)cc1)c1ccc(O)cc1` [BISPHENOL A]?
A: ABSOLUTE BASOPHIL [1]: 0 CELLS/uL; ABSOLUTE EOSINOPHIL [1]: 0 CELLS/uL; ABSOLUTE LYMPHOCYTE [1]: 6683.33 CELLS/uL; ABSOLUTE MONOCYTE [1]: 63.33 CELLS/uL; ABSOLUTE SEGMENTED NEUTROPHIL [1]: 353.33 CELLS/uL; BASOPHIL [1]: 0%; EOSINOPHIL [1]: 0%; ERYTHROCYTE COUNT [1]: 5.4 x10E6/uL; HEMATOCRIT [1]: 32.4%; HEMOGLOBIN [1]: 12.83 G/DL; LEUKOCYTE COUNT [1]: 7.1 x10E3/uL; LYMPHOCYTE [1]: 94%; MEAN CORPUSCULAR HEMOGLOBIN [1]: 23.8 pg; MEAN CORPUSCULAR HEMOGLOBIN CONCENTRATION [1]: 39.63 G/DL; MEAN CORPUSCULAR VOLUME [1]: 59.87 fL; MONOCYTE [1]: 1%; NEUTROPHIL [1]: 5%; NUCLEATED RED BLOOD CELLS [1]: 0 /100WBC; PLATELET COUNT [1]: 1281.67 x10E3/uL; ALANINE AMINOTRANSFERASE [1]: 80.33 u/L; ALBUMIN [1]: 4.13 G/DL; ALKALINE PHOSPHATASE [1]: 398.67 u/L; ASPARTATE AMINOTRANSFERASE [1]: 90.33 u/L; BLOOD UREA NITROGEN [1]: 13.33 mg/dL; CARBON DIOXIDE [1]: 29.33 mmol/L; CHLORIDE [1]: 100.33 MEQ/L; CHOLESTEROL [1]: 54.67 mg/dL; CREATINE PHOSPHOKINASE [1]: 295 u/L; CREATININE [1]: 0.26 mg/dL; GLUCOSE [1]: 161 mg/dL; LACTATE DEHYDROGENASE [1]: 102.33 u/L; LIPASE [1]: 13.33 u/L; PHOSPHORUS [1]: 9.57 mg/dL; POTASSIUM [1]: 5.37 MEQ/L; SODIUM [1]: 144.17 MEQ/L; TOTAL BILIRUBIN [1]: 0.17 mg/dL; TOTAL PROTEIN [1]: 5.77 G/DL; URIC ACID [1]: 0.83 mg/dL; ABSOLUTE BASOPHIL [2]: 0 CELLS/uL; ABSOLUTE EOSINOPHIL [2]: 22.33 CELLS/uL; ABSOLUTE LYMPHOCYTE [2]: 6406 CELLS/uL; ABSOLUTE MONOCYTE [2]: 44.67 CELLS/uL; ABSOLUTE SEGMENTED NEUTROPHIL [2]: 760.33 CELLS/uL; BASOPHIL [2]: 0%; EOSINOPHIL [2]: 0.33%; ERYTHROCYTE COUNT [2]: 5.65 x10E6/uL; HEMATOCRIT [2]: 34.33%; HEMOGLOBIN [2]: 13.43 G/DL; LEUKOCYTE COUNT [2]: 7.23 x10E3/uL; LYMPHOCYTE [2]: 88.33%; MEAN CORPUSCULAR HEMOGLOBIN [2]: 23.77 pg; MEAN CORPUSCULAR HEMOGLOBIN CONCENTRATION [2]: 39.1 G/DL; MEAN CORPUSCULAR VOLUME [2]: 60.8 fL; MONOCYTE [2]: 0.67%; NEUTROPHIL [2]: 10.67%; NUCLEATED RED BLOOD CELLS [2]: 0.33 /100WBC; PLATELET COUNT [2]: 1156 x10E3/uL; ALANINE AMINOTRANSFERASE [2]: 84.33 u/L; ALBUMIN [2]: 3.93 G/DL; ALKALINE PHOSPHATASE [2]: 316.33 u/L; ASPARTATE AMINOTRANSFERASE [2]: 77.67 u/L; BLOOD UREA NITROGEN [2]: 15.67 mg/dL; CARBON DIOXIDE [2]: 31.33 mmol/L; CHLORIDE [2]: 100 MEQ/L; CHOLESTEROL [2]: 64.33 mg/dL; CREATINE PHOSPHOKINASE [2]: 263.67 u/L; CREATININE [2]: 0.18 mg/dL; GLUCOSE [2]: 157.33 mg/dL; LACTATE DEHYDROGENASE [2]: 115.67 u/L; LIPASE [2]: 10 u/L; PHOSPHORUS [2]: 10.37 mg/dL; POTASSIUM [2]: 5.53 MEQ/L; SODIUM [2]: 143.73 MEQ/L; TOTAL BILIRUBIN [2]: 0.27 mg/dL; TOTAL PROTEIN [2]: 5.73 G/DL; URIC ACID [2]: 0.7 mg/dL; ABSOLUTE BASOPHIL [3]: 0 CELLS/uL; ABSOLUTE EOSINOPHIL [3]: 0 CELLS/uL; ABSOLUTE LYMPHOCYTE [3]: 8347 CELLS/uL; ABSOLUTE MONOCYTE [3]: 82 CELLS/uL; ABSOLUTE SEGMENTED NEUTROPHIL [3]: 671 CELLS/uL; BASOPHIL [3]: 0%; EOSINOPHIL [3]: 0%; ERYTHROCYTE COUNT [3]: 5.73 x10E6/uL; HEMATOCRIT [3]: 35.8%; HEMOGLOBIN [3]: 14.07 G/DL; LEUKOCYTE COUNT [3]: 9.1 x10E3/uL; LYMPHOCYTE [3]: 91.67%; MEAN CORPUSCULAR HEMOGLOBIN [3]: 24.6 pg; MEAN CORPUSCULAR HEMOGLOBIN CONCENTRATION [3]: 39.3 G/DL; MEAN CORPUSCULAR VOLUME [3]: 62.63 fL; MONOCYTE [3]: 0.67%; NEUTROPHIL [3]: 7.67%; NUCLEATED RED BLOOD CELLS [3]: 0.33 /100WBC; PLATELET COUNT [3]: 1180 x10E3/uL; ALANINE AMINOTRANSFERASE [3]: 106.33 u/L; ALBUMIN [3]: 4.3 G/DL; ALKALINE PHOSPHATASE [3]: 452.33 u/L; ASPARTATE AMINOTRANSFERASE [3]: 135.67 u/L; BLOOD UREA NITROGEN [3]: 12 mg/dL; CARBON DIOXIDE [3]: 29 mmol/L; CHLORIDE [3]: 100.5 MEQ/L; CHOLESTEROL [3]: 60.33 mg/dL; CREATINE PHOSPHOKINASE [3]: 592 u/L; CREATININE [3]: 0.11 mg/dL; GLUCOSE [3]: 154 mg/dL; LACTATE DEHYDROGENASE [3]: 112 u/L; LIPASE [3]: 48.33 u/L; PHOSPHORUS [3]: 8.77 mg/dL; POTASSIUM [3]: 5.17 MEQ/L; SODIUM [3]: 144.95 MEQ/L; TOTAL BILIRUBIN [3]: 0.27 mg/dL; TOTAL PROTEIN [3]: 5.53 G/DL; URIC ACID [3]: 0.6 mg/dL
